Laboratory results: PubChem BioAssay (NCI)
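Cells were grown in 96-well plates and exposed to each compound for 48 hours at five concentrations; endpoints were interpolated linearly between bracketing concentrations, or set to the highest concentration if not reached. At the TGI there is no net growth.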

What was measured:
Experiment in all cases: DTP human tumour cell line panel, 48 h
BT-549 breast = test system: BT-549 breast
HL-60(TB) leukemia = test system: HL-60(TB) leukemia
HT29 colon = test system: HT29 colon
KM12 colon = test system: KM12 colon
MDA-MB-231 breast = test system: MDA-MB-231 breast
MDA-MB-435 = test system: MDA-MB-435
OVCAR-5 ovarian = test system: OVCAR-5 ovarian
SNB-75 CNS = test system: SNB-75 CNS
U251 CNS = test system: U251 CNS
UO-31 renal = test system: UO-31 renal

| Structure (SMILES) | TGI (BT-549 breast) [µM] | TGI (HL-60(TB) leukemia) [µM] | TGI (HT29 colon) [µM] | TGI (KM12 colon) [µM] | TGI (MDA-MB-231 breast) [µM] | TGI (MDA-MB-435) [µM] | TGI (OVCAR-5 ovarian) [µM] | TGI (SNB-75 CNS) [µM] | TGI (U251 CNS) [µM] | TGI (UO-31 renal) [µM] |
| --- | --- | --- | --- | --- | --- | --- | --- | --- | --- | --- |
| COc1cc(C2C3=C(N=C4SC(C(C)=O)=C(C)N42)c2ccccc2CC3)cc(OC)c1OC (stereo unspecified) | > 100 | 81.4 | > 100 | > 100 | > 100 | > 100 | > 100 | > 100 | > 100 | > 100 |
| Nc1ccc(-c2nc3cc(F)ccc3s2)cc1 | > 100 | > 100 | > 100 | > 100 | 81.5 | > 100 | > 92.8 | 50.7 | > 80 | > 100 |
| O=[N+]([O-])c1ccc(-[n+]2ccc3ccccc3c2)c([N+](=O)[O-])c1 | 13.5 | 3.71 | 6.5 | 27.7 | 9.01 | 7.07 | 23.9 | 8.74 | 17.7 | 9.28 |
| Cn1c(=O)c2[nH]c(-n3nc(-c4ccccc4)cc3N)nc2n(C)c1=O | > 100 | 61.2 | > 100 | > 100 | > 100 | > 100 | > 100 | – | > 100 | > 100 |
| CC(CN(C)C)C(=O)/C=C/c1ccc(Cl)c(Cl)c1 (stereo unspecified) | 4.45 | 4.46 | – | 3.23 | 3.29 | 3.33 | 4.07 | 51.1 | 2.51 | 3.22 |
| CC1=CC(=O)/C(=C/N2CCNC2=S)C(=O)O1 | > 100 | > 100 | > 100 | > 100 | > 100 | > 100 | > 100 | > 100 | > 100 | > 100 |
| CC(=O)N1C(OCc2ccccc2)CCN1c1ccccc1 (stereo unspecified) | > 10 | > 10 | > 10 | – | > 10 | > 10 | > 10 | > 10 | – | > 10 |
| O=C1C(CN2CCCC2)CCCC1CN1CCCC1 (stereo unspecified) | 3.62 | 0.445 | 33.6 | 39.8 | 31.1 | 7.43 | 13.2 | 35.6 | 41.3 | 2.31 |
| CN1CCN(c2c(O)c3c(c(O)c2Cl)C(=O)C=CC3=O)CC1 | 1.27 | 0.332 | 1.38 | 3.93 | 1.06 | 0.538 | 2.93 | 3.56 | 4.07 | 1.22 |
| O=C1CC(Cl)c2c(Cl)sc(Cl)c21 (stereo unspecified) | 13.3 | 3.23 | 5.93 | 4.03 | > 25.7 | 6.34 | 34.7 | 22.8 | – | 3.67 |
| COc1cnnc2c(C)c(-c3ccccc3)nn12 | > 100 | > 100 | > 100 | > 100 | > 100 | > 100 | > 100 | > 100 | > 100 | > 100 |
| COc1cc(C2c3cc4c(cc3OC(N3CCOCC3)C2C)OCO4)cc(OC)c1OC(C)=O (stereo unspecified) | > 100 | > 59 | 57.9 | > 100 | 99.2 | 14.4 | > 100 | 25.2 | > 80.9 | > 100 |
| CC(C)C(/C=C/c1ccccc1)=N\NC(=S)NN | > 100 | > 100 | > 100 | > 100 | > 100 | > 100 | > 100 | > 100 | > 100 | > 100 |
| CCOC(=O)C1=CN(C(=O)c2ccccc2)CCC1Cc1ccccc1 (stereo unspecified) | 85.9 | 32.2 | 35.1 | > 100 | 64.9 | 51 | > 100 | 70.3 | 51.9 | 77.9 |
| CCOC(=O)/C=C(/C(=O)OCC)n1ccc(=O)[nH]c1=O | 24.9 | 4.08 | 36 | 34.8 | 26.4 | 24.4 | 14.4 | 29.2 | 27.3 | 27.8 |
| Cc1nn(C(=O)c2ccc(Cl)cc2)c2c1C(c1ccco1)SC(N)=N2 (stereo unspecified) | > 10 | > 10 | > 10 | > 10 | > 10 | > 10 | > 10 | > 10 | > 10 | – |
| C=C1[C@H](OCC(C)C)[C@@H](OC(=O)C(C)CC)[C@@H](O)C(C)(C)/C=C/[C@H](C)C(=O)[C@@]2(O)C[C@H](C)[C@H](O)[C@@H]2[C@H]1OC(=O)C(C)CC (stereo partly specified) | > 20 | 19 | 9.87 | > 13.6 | > 12.5 | > 20 | > 17.7 | > 18.7 | > 20 | > 5.12 |
| O=Cc1cc(O)c(O)c(/C=N/n2c3ccccc3c3ccccc32)c1 | 12.4 | 6.32 | 48.1 | 84.3 | 30.2 | 28.3 | 49 | 9.76 | 45.5 | 26.1 |
| O=[N+]([O-])c1cc(Cl)ccc1S(=O)(=O)c1cc(Cl)cc2c1NCCC2 | > 100 | > 100 | > 100 | > 100 | > 100 | > 100 | > 100 | > 100 | – | > 100 |
| CSc1nc(=O)c(C#N)c(-c2ccccc2)n1C1OC(COC(C)=O)C(OC(C)=O)C(OC(C)=O)C1OC(C)=O (stereo unspecified) | > 100 | > 100 | > 100 | > 100 | > 100 | > 100 | > 100 | > 100 | > 100 | > 100 |
| CC(=O)C(C(=O)C(C)(C)C)C(=O)C(C)(C)C | > 100 | > 100 | – | > 100 | > 100 | > 100 | > 100 | > 100 | > 100 | > 100 |
| COc1cc(C)cc(OC)c1/C=C/C(=O)O | > 100 | > 100 | > 100 | > 100 | > 100 | > 100 | > 100 | – | > 100 | > 100 |
